One data set concerns zebrafish embryos. Put plainly: Hemoglobin staining (o-dianisidine) of zebrafish embryos injected with csnk2b morpholino. Format: in vivo, Zebrafish (Danio rerio). The following applies: 2 dpf. Here is the method: Zebrafish (Danio rerio) were raised in a circulating aquarium system on a 14-hour light/10-hour dark cycle at 28.5° C., following standard husbandry procedures.
The morpholino antisense oligo (MO) 5′-[…]-3′ (SEQ ID NO: 23) was synthesized to block the translation initiation of csnk2b, and the 5-mismatch oligo 5′-[…]-3′ (SEQ ID NO: 24) was synthesized as a specificity control (Gene Tools). For synthesizing CSNK2B rescue mRNA that is resistant to the translation blocking MO, the full-length csnk2b coding sequence with 4 base pairs of silent mutations in the MO recognition region was cloned into the pCS2-vector (Azenta Life Sciences), in which the first 24 base pairs of the CSNK2B coding sequence became 5′-[…]-3′ (SEQ ID NO: 25). The csnk2b capped mRNA was synthesized using the mMESSAGE mMACHINE Kit (Ambion, AM1340). Microinjection was performed on WT AB embryos at the 1- to 2-cell stages.
Embryos at 2 dpf were dechorionated and anesthetized with 0.016% tricaine (Fluka, A5040), followed by a 15-minute incubation in 0.6 mg/mL o-dianisidine solution (SigmaAldrich, D9143). This solution was prepared in 0.65% H2 O2 (EMD, HX0647-3), 40% ethanol (KOPTEC, 89125), and 10 mM sodium acetate (Fisher Chemical, S210-500) at room temperature. Stained embryos were washed twice with 1×PBS (Gibco, Thermo Fisher Scientific, 14200166) and then fixed in 4% paraformaldehyde (PFA) (SigmaAldrich, P6148). Hemoglobin signal was observed under a light microscope and quantified according to the area and intensity in the heart and common cardinal vein; embryos were categorized into normal, medium, and low hemoglobin levels.

A further data set concerns CMS cells. As to the kind of experiment: BFU-E colony forming assay with CK2 inhibitors, iPSC-derived CD34+ cells under hypoxia. In kind it is cell-based, human. The following applies: 5% O2, 14 days, TBB 25 μM, 50 µM, 100 μM, CX4945 2.5, 5, 10 μM. The method, then: (§1) CD34^+ cells were isolated from iPSC-derived EBs as follows. After 7 days of differentiation, EBs were harvested by spinning at 400 g for 10 minutes. After centrifugation, EBs were dissociated into single cells using Accutase treatment for 10 minutes and then filtered through a 60 μm cell strainer (Falcon). CD34^+ cells were isolated from this cell suspension using EasySep Human CD34 Positive Selection Kit 11 ([…] Technologies, 17856) per the manufacturer's instructions. These iPSC-derived CD34+ cells were used in subsequent qPCR and colony-forming assays.
CD34^+ cells used in this assay were derived from iPSC-generated EBs as described herein. CD34^+ cells were plated at a density of 10^5 cells per 35 mm dish combined with MethoCult H4034 Optimum Media ([…] Technologies, 04044) and 2% FBS. Dishes were incubated at 37° C. in an incubator with 5% CO2 and 5% O2 for 14 days, at which time colonies were scored for BFU-E and CFU-granulocyte, erythrocyte, monocyte, megakaryocyte (CFU-GEMM).
TBB (catalog ab120988) and CX4945 (catalog S2248) were purchased from Abcam and Selleckcam, respectively. Dose-response experiments were performed with the inhibitors using the following concentrations in the colony forming assays using iPSC-derived CD34^+ cells as described herein: TBB (25 μM, 50 µM, and 100 μM) and CX4945 (2.5 μM, 5 μM, and 10 μM).

In the next data set the test system is Monge's disease. The note with it: patients; cited from earlier work.
A further data set deals with LINC02228 (HIKER). Put plainly: KD efficiency of LINC02228 (HIKER) by ASO, qPCR. The following applies: CMS cells. In kind it is cell-based, human. The method, then: Locked nucleic acids (LNAs) targeting HIKER/LINC02228 and LINC00431 were designed and synthesized by Exiqon. The most efficient ASO for each LNA was initially tested in the pilot experiment with and without transfection reagent (Lipofectamine 3000. Life Technologies. L3000-008) in a dose-response experiment at a concentration of 10 nM, 25 nM, 50 nM, and 100 nM. The uptake and the effect of ASO were monitored by qPCR at various stages (iPSC stage and CD34+ cells isolated from EBs). For both lncRNAs, the optimal delivery for all the stages was at the 50 nM concentration without the transfection reagent.
as §1

“Also recorded” adds a separate entry of the source.

As to “MO: morpholino antisense oligo 5′-CGACACTTCCTCTGAGCTACTCATG-3′ (SEQ ID NO: 23) blocking translation initiation of csnk2b (all phosphorodiamidate morpholino (PMO))”, in the data set with zebrafish embryos (1 ng dose), the hemoglobin levels result is reported as “minimal impact on hemoglobin levels”. Besides, the hemoglobin versus controls entry in the data set with zebrafish embryos (3 ng and 5 ng MO dosage) is “remarkable decrease in hemoglobin”. In addition, in the data set on zebrafish embryos (3 ng and 5 ng MO), the “morphants showing moderate or low iron staining” value is recorded as “more than 97%”. The “hemoglobin, dose dependence” value with zebrafish embryos (1, 3 or 5 ng) is recorded as “dose-dependent loss of hemoglobin”.
Take `Brc1c(Br)c(Br)c2n[nH]nc2c1Br` [TBB]: in the data set with CMS cells, the “BFU-E colonies (erythroid colony numbers)” value is reported as “significant changes were observed in the colony numbers in a dose-dependent manner; also recorded: decreases BFU-E colonies in CMS cells in a dose-dependent manner”.
For the compound `CC(=O)Nc1nnc(S(N)(=O)=O)s1` [Acetazolamide], the “clinical response in Monge's disease” value with Monge's disease is “mild response and relief of symptoms”.
Regarding “ASO-1: LNA gapmer ASO targeting HIKER/LINC02228, SEQ ID NO 1: G*G*T*T*G*C*T*T*T*C*A*G*G*C*C*C*C*T*T*A (antisense GGTTGCTTTCAGGCCCCTTA; all phosphorothioate, sugars by position and methylation of C not given here; LNA gapmer)”, the “KD efficiency, ranking among the 3 ASOs” value in the data set with LINC02228 (HIKER) is on record as “highest KD efficiency”.

Values taken from US20260193659A1, “METHODS FOR TREATING MONGE'S DISEASE” (The Regents of the University of California, priority 2022, published 2026).
